ChEMBL document CHEMBL5241054, “Effective anti-aromatase therapy to battle against estrogen-mediated breast cancer: Comparative SAR/QSAR assessment on steroidal aromatase inhibitors” (Eur J Med Chem, 2020)

Target: T1, Aromatase (Homo sapiens, UniProt P11511)
T1 sequence (P11511 whole entry): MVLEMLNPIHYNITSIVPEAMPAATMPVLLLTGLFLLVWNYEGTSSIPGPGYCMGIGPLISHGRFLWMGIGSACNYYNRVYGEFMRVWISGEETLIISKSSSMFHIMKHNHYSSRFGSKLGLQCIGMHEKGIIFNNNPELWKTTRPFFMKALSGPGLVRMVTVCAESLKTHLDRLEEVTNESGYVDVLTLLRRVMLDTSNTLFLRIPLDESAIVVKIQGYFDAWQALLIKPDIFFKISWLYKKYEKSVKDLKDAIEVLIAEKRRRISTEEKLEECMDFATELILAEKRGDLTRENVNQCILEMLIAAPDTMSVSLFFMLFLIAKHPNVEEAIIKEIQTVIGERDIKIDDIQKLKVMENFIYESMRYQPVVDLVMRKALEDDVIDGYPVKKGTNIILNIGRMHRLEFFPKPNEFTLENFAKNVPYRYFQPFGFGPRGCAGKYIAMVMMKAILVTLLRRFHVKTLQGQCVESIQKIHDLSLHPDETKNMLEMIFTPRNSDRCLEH

In order of falling IC50:
1. C[C@]12C[C@@H](Cc3ccccc3)C(=O)C=C1CC[C@@H]1[C@@H]2CC[C@]2(C)C(=O)CC[C@@H]12  466 µM
2. C[C@]12CCC(=O)C=C1[C@@H](CCCCc1ccccc1)C[C@@H]1[C@@H]2CC[C@]2(C)C(=O)CC[C@@H]12  340 µM
3. C[C@]12CC[C@@H]3c4ccc(O)c(NC(=O)c5ccccn5)c4CC[C@H]3[C@@H]1CCC2=O  203 µM
4. C[C@]12CCC(=O)C=C1[C@@H](CCc1ccccc1)C[C@@H]1[C@@H]2CC[C@]2(C)C(=O)CC[C@@H]12  140 µM
5. C[C@]12CC[C@@H]3c4ccc(O)cc4[C@@H](c4ccccc4)C[C@H]3[C@@H]1CC[C@@H]2O  129 µM
6. CC(=O)O[C@H]1CCC[C@@]2(C)C1=CC(=O)[C@@H]1[C@@H]2CC[C@]2(C)C(=O)CC[C@@H]12  95.1 µM
7. Cc1ccc(S(=O)(=O)N2[C@H]3[C@@H]4[C@H](CC[C@]5(C)C(=O)CC[C@@H]45)[C@@]4(C)CCC(=O)C=C4[C@H]32)cc1 (stereo partly drawn)  92.9 µM
8. CCO[C@H]1C[C@@H]2[C@H](CC[C@]3(C)C(=O)CC[C@@H]23)c2ccc(O)cc21  74 µM
9. C[C@@H]1C[C@@H]2[C@H](CC[C@]3(C)[C@@H](O)CC[C@@H]23)c2ccc(O)cc21  61 µM
10. CCCC[C@@H]1C[C@@H]2[C@H](CC[C@]3(C)[C@@H](O)CC[C@@H]23)c2ccc(O)cc21  44 µM
11. CCCC[C@H]1C[C@@H]2[C@H](CC[C@]3(C)C(=O)CC[C@@H]23)c2ccc(O)cc21  35 µM
12. C[C@]12C=C(CCCCc3ccccc3)C(=O)C=C1CC[C@@H]1[C@@H]2CC[C@]2(C)C(=O)CC[C@@H]12  34.2 µM
13. C[C@]12C=C(CCc3ccc(C(F)(F)F)cc3)C(=O)C=C1CC[C@@H]1[C@@H]2CC[C@]2(C)C(=O)CC[C@@H]12  34.1 µM
14. C[C@]12CCCCC1=CC[C@@H]1[C@@H]2CC[C@]2(C)C(O)CC[C@@H]12 (stereo partly drawn)  30 µM
15. C[C@]12CC[C@H]3[C@@H](CCC4=CC(=O)CC[C@@]43C#N)[C@@H]1CCC2=O  25 µM
16. C[C@]12CC[C@H]3[C@@H](CC=C4C(=O)CCC[C@@]43CO)[C@@H]1CCC2=O  22 µM
17. COC1=C2C=C[C@@H]3[C@H](CC[C@]4(C)C(=O)CC[C@@H]34)[C@@]2(C)CCC1=O  11 µM
18. C[C@]12CCC(=O)C=C1C(=O)[C@@H](O)[C@@H]1[C@@H]2CC[C@]2(C)C(=O)CC[C@@H]12  11 µM
19. COC1=C2CC[C@@H]3[C@H](CC[C@]4(C)C(=O)CC[C@@H]34)[C@@]2(C)CCC1=O  7.19 µM
20. Cc1ccc(CCC2=C[C@@]3(C)C(=CC2=O)CC[C@@H]2[C@@H]3CC[C@]3(C)C(=O)CC[C@@H]23)cc1  6.35 µM
21. C[C@]12CC[C@H]3[C@@H](CC(=O)C4=CCCC[C@@]43CO)[C@@H]1CCC2=O  5.79 µM
22. CCOC1=C2C(=O)C[C@@H]3[C@H](CC[C@]4(C)C(=O)CC[C@@H]34)[C@@]2(C)CCC1=O  4.5 µM
23. C[C@]12CCC(=O)C=C1[C@H](Cc1ccccc1)C[C@@H]1[C@@H]2CC[C@]2(C)C(=O)CC[C@@H]12  4 µM
24. C[C@]12CC[C@H]3[C@@H](CCC4=CC(=O)CC[C@@]43CC(F)F)[C@@H]1CCC2=O  4 µM
25. C[C@]12CC[C@@H]3c4ccc(O)cc4[C@@H](Cc4ccccc4)C[C@H]3[C@@H]1CCC2=O  3.5 µM
26. C[C@]12CC[C@H]3[C@@H](C(=O)C=C4CCCC[C@@]43CO)[C@@H]1CCC2=O  3.3 µM
27. C[C@]12CC[C@H]3[C@@H](CCC4=CC(=O)CC[C@@]43CF)[C@@H]1CCC2=O  3 µM
28. C[C@]12CC[C@H]3[C@@H](CCC4=CC(=O)CC[C@@]43CC#N)[C@@H]1CCC2=O  2.6 µM
29. COC1=C2C(=O)C[C@@H]3[C@H](CC[C@]4(C)C(=O)CC[C@@H]34)[C@@]2(C)CCC1=O  2 µM
30. CCCC[C@@H]1C[C@@]2(C)C(=CC1=O)CC[C@@H]1[C@@H]2CC[C@]2(C)C(=O)CC[C@@H]12  1.93 µM
31. COC1=C2C(=O)C[C@@H]3[C@H](CC[C@]4(C)C(=O)CC[C@@H]34)[C@@]2(C)CC(C)(C)C1=O  1.9 µM
32. C[C@]12CC[C@H]3[C@@H](CC(=O)C4=CCCC[C@@]43C)[C@@H]1CC[C@@H]2O  1.8 µM
33. C=CC[C@]12CCC(=O)C=C1CC[C@@H]1[C@@H]2CC[C@]2(C)C(=O)CC[C@@H]12  1.8 µM
34. C[C@]12CCCCC1=CC(=O)[C@@H]1[C@@H]2CC[C@]2(C)C(O)CC[C@@H]12 (stereo partly drawn)  1.6 µM
35. CC(=O)OC1=C2CC[C@@H]3[C@H](CC[C@]4(C)C(=O)CC[C@@H]34)[C@@]2(C)CCC1=O  1.5 µM
36. C[C@]12CC[C@H]3[C@@H](CCC4=CC(=O)CC[C@@]43CCl)[C@@H]1CCC2=O  1.4 µM
37. CC(C)[C@H]1C[C@@H]2[C@H](CC[C@]3(C)C(=O)CC[C@@H]23)[C@@]2(C)CCC(=O)C=C12  1.4 µM
38. C[C@]12CC[C@H]3[C@@H](CCC4=CC(=O)CC[C@@]43CBr)[C@@H]1CCC2=O  1.4 µM
39. C[C@]12CC[C@@H]3c4ccc(O)cc4[C@@H](c4ccccc4)C[C@H]3[C@@H]1CCC2=O  1.4 µM
40. C[C@]12CCCC(=O)C1=CC[C@@H]1[C@@H]2CC[C@]2(C)C(=O)CC[C@@H]12  1.2 µM
41. C[C@]12CCC(=O)C=C1[C@@H]1[C@H]([C@@H]3[C@@H]2CC[C@]2(C)C(=O)CC[C@@H]32)C1(F)F  1.15 µM
42. COC1=C[C@@]2(C)C(=CC1=O)CC[C@@H]1[C@@H]2CC[C@]2(C)C(=O)CC[C@@H]12  1.1 µM
43. C[C@]12C[C@@H](F)C(=O)C=C1[C@H](F)C[C@@H]1[C@@H]2CC[C@]2(C)C(=O)CC[C@@H]12  1 µM
44. CCC1=C[C@@]2(C)C(=CC1=O)CC[C@@H]1[C@@H]2CC[C@]2(C)C(=O)CC[C@@H]12  0.959 µM
45. CCCC[C@H]1C[C@@H]2[C@H](CC[C@]3(C)C(=O)CC[C@@H]23)[C@@]2(C)CCC(=O)C=C12  0.791 µM
46. C[C@]12CC[C@H]3[C@@H](C=CC4=CC(=O)CC[C@@]43CCl)[C@@H]1CCC2=O  0.76 µM
47. C[C@@H]1C[C@@H]2[C@H](CC[C@]3(C)C(=O)CC[C@@H]23)[C@@]2(C)CCC(=O)C=C12  0.719 µM
48. C[C@]12CCCCC1=CC[C@@H]1[C@@H]2CC[C@]2(C)C(=O)CC[C@@H]12  0.681 µM
49. C[C@]12CCC(=O)C(O)=C1C(=O)C[C@@H]1[C@@H]2CC[C@]2(C)C(=O)CC[C@@H]12  0.46 µM
50. C[C@]12C=CC(=O)C=C1C=C[C@@H]1[C@@H]2CC[C@]2(C)C(=O)CC[C@@H]12  0.45 µM
51. C[C@]12CC[C@H]3[C@@H](CCC4=CC(=O)CC[C@@]43C(F)F)[C@@H]1CC[C@@H]2O  0.42 µM
52. C[C@]12CC[C@@H]3C4CCC(=O)C(F)=C4CC[C@H]3[C@@H]1CCC2=O (stereo partly drawn)  0.4 µM
53. CC(=O)OC1[C@@H]2[C@H](CC[C@]3(C)C(=O)CC[C@@H]23)[C@@]2(C)CCC(=O)C=C2[C@@H]1N=[N+]=[N-] (stereo partly drawn)  0.4 µM
54. CC[C@]12C=CC(=O)C=C1C=C[C@H]1[C@@H]3CCC(=O)[C@@]3(C)CC[C@@H]12  0.36 µM
55. C[C@]12CCC(=O)C=C1C(CCCCCc1ccccc1)=C[C@@H]1[C@@H]2CC[C@]2(C)C(=O)CC[C@@H]12  0.3 µM
56. C[C@]12CCC(=O)C=C1C(CCCCc1ccccc1)=C[C@@H]1[C@@H]2CC[C@]2(C)C(=O)CC[C@@H]12  0.28 µM
57. C[C@H]1C[C@@H]2[C@H](CC[C@]3(C)C(O)CC[C@@H]23)[C@@]2(C)CCCC=C12 (stereo partly drawn)  0.26 µM
58. CC[C@H]1C[C@@H]2[C@H](CC[C@]3(C)C(=O)CC[C@@H]23)[C@@]2(C)C=CC(=O)C=C12  0.25 µM
59. CCCC[C@@H]1C[C@@H]2[C@H](CC[C@]3(C)C(=O)CC[C@@H]23)[C@@]2(C)C=CC(=O)C=C12  0.18 µM
60. C[C@]12CCCC=C1C(=O)C[C@@H]1[C@@H]2CC[C@]2(C)C(=O)CC[C@@H]12  0.165 µM
61. C[C@]12C=C(CCCc3ccccc3)C(=O)C=C1CC[C@@H]1[C@@H]2CC[C@]2(C)C(=O)CC[C@@H]12  0.145 µM
62. CC[C@H]1C[C@@H]2[C@H](CC[C@]3(C)C(O)CC[C@@H]23)[C@@]2(C)CCCC=C12 (stereo partly drawn)  0.13 µM
63. CC(=O)O[C@@H]1C[C@@H]2[C@H](CC[C@]3(C)C(=O)CC[C@@H]23)[C@@]2(C)CCCC=C12  0.12 µM
64. C[C@]12C=CC(=O)C=C1C(CCCCCc1ccccc1)=C[C@@H]1[C@@H]2CC[C@]2(C)C(=O)CC[C@@H]12  0.1 µM
65. C[C@]12CCC(=O)C=C1C(Cc1ccccc1)=C[C@@H]1[C@@H]2CC[C@]2(C)C(=O)CC[C@@H]12  0.078 µM
66. C[C@]12CCC(=O)C=C1C[C@@H](SCCc1ccccc1)[C@@H]1[C@@H]2CC[C@]2(C)C(=O)CC[C@@H]12  0.0619 µM
67. CCCCCCC[C@@H]1C[C@@H]2[C@H](CC[C@]3(C)C(=O)CC[C@@H]23)[C@@]2(C)C=CC(=O)C=C12  0.06 µM
68. CCCCS[C@@H]1CC2=CC(=O)CC[C@]2(C)[C@H]2CC[C@]3(C)C(=O)CC[C@H]3[C@H]12  0.057 µM
